Experimental data from US20220380357A1, “TETRAHYDROISOQUINOLINE COMPOUNDS” (ALLINKY BIOPHARMA, priority 2019, published 2022).
pIC50: −log10 of the molar value.

What was measured:
[1] = test system: NIH-H358 Cell Line; experiment: 3D CellTiter-Glo cell viability assay; format: cell-based; settings: 168 h, NIH-H358 cells in 0.65% methylcellulose, 7 days' compound treatment
Method: Example 5: Efficacy Testing in 3D Viability Assay for NIH-H358 Cell Line
The protocol to perform 3D CellTiter-Glo™ cell viability assay is as follows:
Day—1: Cell plating • Adjust cell concentrations to 1×10^5 cells/ml with respective medium. (Cell concentration is adjusted according to data base or density optimization assay). Mix 3.5 mL of cell suspension 6.5 mL of 1% methylcellulose. Mix and wait for bubbles to disperse before pipetting. This step yields 10 ml of cell suspension in 0.65% methylcellulose solution. Add 99.5 μL cell suspensions to 96-well plates according to plate map with final cell density. • Two duplicate plates will be set up. One is for day 0 reading (T0) and the other will be cultured in incubator for reading at the end point. • Incubate the plates overnight in humidified incubator at 37° C. with 5% CO2.
Day 0: T0 plate reading and compound treatment • Take T0 plate, add 0.5 μL culture medium to each well for T0 reading. • Add 100 μl CellTiter-Glo® Reagent to each well. • Mix contents for 2 minutes on an orbital shaker to facilitate cell lysis. • Allow the plate to incubate at room temperature for 10 minutes to stabilize luminescent signal. • Record luminescence using EnVision Multi Label Reader. • Dilute the test articles at the concentration indicated at Test Articles Dilution. Add 0.5 μL of each 200× compound working solutions according to plate inoculation map.
Day 7: Plate reading of 7 days' compound treatment • Add 100 μL CellTiter-Glo® Reagent to each well. • Mix contents for 2 minutes on an orbital shaker to facilitate cell lysis. • Allow the plate to incubate at room temperature for 10 minutes to stabilize luminescent signal. • Record luminescence using EnVision Multi Label Reader.

[2] = test system: A549. Lung carcinoma cell line bearing KRas^G12S oncogenic mutation; experiment: Antiproliferative MTS assay, A549 cells; format: cell-based; settings: Homo sapiens, A549, 72 h, compounds 1-23 and 47-52 median of experiments, 24-46 estimations and/or preliminary results, read-out: IC50 values: cell proliferation inhibition, A549
Method: Cell line #1: A549. Lung carcinoma cell line bearing KRas^G12S oncogenic mutation
(§1) Cell lines were cultured in DMEM or RPMI-1640 supplemented with FBS 10%. In order to assess the antiproliferative effect of compounds, cells were seeded at a density of 1.8×10^3, 6.2×10^3, 7.8×10^3, 21×10^3 and 2×10^3 cells/cm^2, respectively, in tissue culture microplates and were incubated in humidified atmosphere at 5% CO2. 24 h later, compounds dissolved in DMSO 100% were added for different final concentrations ranging between 0.1 and 50 μM for a final DMSO concentration of 0.5% and the plates were incubated for another 72 h. After incubation, proliferation was quantified using CellTiter 96® Aqueous Non-Radioactive Cell Proliferation Assay-MTS (Promega #G5421) following manufacturer instructions. Amount of 490 nm absorbance is directly proportional to the number of living cells. Absorbance was recorded with a BMG Fluostar Optima Microplate Reader and normalized to control with vehicle.

[3] = test system: RPMI. myeloma cell line bearing KRas^G12A oncogenic mutation; experiment: Antiproliferative MTS assay, RPMI cells; format: cell-based; settings: 72 h, compounds 1-23 and 47-52 median of experiments, 24-46 estimations and/or preliminary results, read-out: IC50 values: cell proliferation inhibition, RPMI
Method: Cell line #4: RPMI. myeloma cell line bearing KRas^G12A oncogenic mutation
as §1

[4] = test system: PANC-1. epithelioid carcinoma of the pancreas cell line bearing KRas^G12D oncogenic mutation; experiment: Antiproliferative MTS assay, PANC-1 cells; format: cell-based; settings: Homo sapiens, PANC-1, 72 h, compounds 1-23 and 47-52 median of experiments, 24-46 estimations and/or preliminary results, read-out: IC50 values: cell proliferation inhibition, Panc-1
Method: Cell line #3: PANC-1. epithelioid carcinoma of the pancreas cell line bearing KRas^G12D oncogenic mutation
as §1

[5] = test system: H358. non-small cell lung cancer line bearing KRas^G12C oncogenic mutation; experiment: Antiproliferative MTS assay, H358 cells; format: cell-based; settings: Homo sapiens, NCI-H358, 72 h, compounds 1-23, 47-52 and Reference Example 1 median of experiments, 24-46 estimations and/or preliminary results, read-out: IC50 values: cell proliferation inhibition, H358
Method: Cell line #2: H358. non-small cell lung cancer line bearing KRas^G12C oncogenic mutation
as §1

[6] = test system: subcutaneous NCI-H358 Human Lung Cancer Model; experiment: Efficacy in xenograft studies (tumor growth inhibition); format: in vivo, NCr nude mice; settings: for Oral anti-tumor activity: 20 mg/kg BID peroral, subcutaneous NCI-H358 xenograft; for TGI (tumor growth inhibition): NCI-H358 xenograft, NCr nude mice
Source text: (§2) Evaluation of the efficacy of compounds 6, 11 and 13 in the treatment of subcutaneous NCI-H358 Human Lung Cancer Model in NCr nude mice.
(§3) The treatment with compound 6 started when the tumors size reached 170 mm^3 (study 1). This value was 190 mm^3 in the case of compounds 11 and 13 (study 2).
Studies endpoints: The major endpoints of the study included the following:
Tumor growth inhibition (TGI): TGI(%) is an indication of antitumor effectiveness, and it is expressed as: TGI (%)=100×(1−T/C). T and C were the mean tumor volume of the treated and control groups, respectively, on a given day.

[7] = Body weight and tolerability in xenograft studies; format: in vivo; settings: 20 mg/kg BID peroral, mice bearing NCI-H358 xenograft
Source text: as §2, §3
The results of the body weight changes in the tumor bearing mice are shown in FIG. 1 (p.o. is peroral; i.p. is intraperitoneal). The body weight of the animals at the end of the treatment with the three compounds was only slightly below the body weight of the respective vehicle control groups.

[8] = Study 2: 20 mg/kg peroral BID × 27 days

Structure (SMILES) | pIC50 [1] | pIC50 [2] | pIC50 [3] | pIC50 [4] | pIC50 [5] | Oral anti-tumor activity [6] | TGI (tumor growth inhibition) [6, 8] [%] | Tolerability / safety of dose [7] | TGI (tumor growth inhibition) ([6]; Study 1: 20 mg/kg peroral BID × 29 days) [%]
CCNC(=O)N1CCc2cc(OC)c(OCCc3ccc(N)c(OC)c3)cc2C1c1ccc(C)cc1C (stereo not shown) [Compound 9, 7-(4-amino-3-methoxyphenethoxy)-1-(2,4-dimethylphenyl)-N-ethyl-6-methoxy-3,4-dihydroisoquinoline-2(1H)-carboxamide] | 6.19 | 6.00 | 6.70 | 6.52 | 6.40 |  |  |  | 
CCNC(=O)N1CCc2cc(OC)c(OCCc3ccc(OC)c(N)c3)cc2C1c1ccc(OC)cc1C (stereo not shown) [Compound 11] | 6.38 | 6.10 | 7.00 | 6.70 | 6.70 | significant oral anti-tumor activities | 48.22 | tolerate 20 mg/kg BID and safe | 
CCNC(=O)N1CCc2cc(OC)c(OCCc3ccc(F)c(N)c3)cc2C1c1ccc(C)cc1C (stereo not shown) [Compound 7] | 6.27 | 6.22 | 6.22 | 6.10 | 6.05 |  |  |  | 
COc1ccc(CCOc2cc3c(cc2OC)CCN(C(=O)N[C@@H](C)C(F)(F)F)C3c2ccc(C)cc2C)cc1N (stereo partly shown) [Compound 48] | 6.43 | < 6.00 | 7.40 | 6.30 | 7.00 |  |  |  | 
COc1ccc(CCOc2cc3c(cc2OC)CCN(C(=O)NCc2cocn2)C3c2ccc(C)cc2C)cc1O (stereo not shown) [Compound 2] | 6.52 | 6.00 | 6.70 | 6.52 | 6.40 |  |  |  | 
CCNC(=O)N1CCc2cc(OC)c(OCCc3ccc(OC)c(N)c3)cc2C1c1ccc(C(F)(F)F)cc1C (stereo not shown) [Compound 10] | 6.44 | 6.05 | 7.00 | 6.70 | 6.52 |  |  |  | 
CCNC(=O)N1CCc2cc(OC)c(OCCc3ccc(OC)c(O)c3)cc2C1c1ccc(C)cc1C (stereo not shown) [Compound 5, 1-(2,4-dimethylphenyl)-N-ethyl-7-(3-hydroxy-4-methoxyphenethoxy)-6-methoxy-3,4-dihydroisoquinoline-2(1H)-carboxamide] | 6.27 | 6.15 | 7.00 | 6.70 | 7.00 |  |  |  | 
CCNC(=O)N1CCc2cc(OC)c(OCCc3ccc(OC)c([N+](=O)[O-])c3)cc2C1c1ccc(C)cc1C (stereo not shown) [Compound 8] | < 5.52 | 6.05 | 6.70 | 6.70 | 6.70 |  |  |  | 
COc1ccc(CCOc2cc3c(cc2OC)CCN(C(=O)NCc2cocn2)C3c2ccc(C)cc2C)cc1N (stereo not shown) [Compound 4] | 6.25 | 6.05 | 6.52 | 6.40 | 6.70 |  |  |  | 
COc1ccc(C2c3cc(OCCc4ccc(OC)c(N)c4)c(OC)cc3CCN2C(=O)N[C@@H](C)C(F)(F)F)c(C)c1 (stereo partly shown) [Compound 50] | 6.12 | < 5.70 | 6.82 | 6.70 | 6.30 |  |  |  | 
COc1cc2c(cc1OCCc1cc(O)cc(Cl)c1)C(c1ccc(C)cc1C)N(C(=O)NCc1cocn1)CC2 (stereo not shown) [Compound 3] | < 6.00 | < 5.70 | < 5.70 | < 5.70 | < 5.70 |  |  |  | 
CCNC(=O)N1CCc2cc(OC)c(OCCc3ccc(OC)c(N)c3)cc2C1c1ccc(Cl)cc1C (stereo not shown) [Compound 13] | 6.83 | 6.00 | 7.00 | 6.52 | 6.52 | significant oral anti-tumor activities | 26.99 | tolerate 20 mg/kg BID and safe | 
COc1cc(O)cc(CCOc2cc3c(cc2OC)CCN(C(=O)NCc2cocn2)C3c2ccc(C)cc2C)c1 (stereo not shown) [Compound 1] | < 6.00 | 5.70 | 5.82 | 5.70 | 5.82 |  |  |  | 
CCNC(=O)N1CCc2cc(OC)c(OCCc3ccc(OC)c(N)c3)cc2C1c1ccc(Br)cc1C (stereo not shown) [Compound 51] | 6.75 | 6.70 | < 6.00 | 7.15 | 6.82 |  |  |  | 
CCNC(=O)N1CCc2cc(OC)c(OCCc3ccc(OC)c(N)c3)cc2C1c1ccc(C)cc1C (stereo not shown) [Compound 6, 7-(3-amino-4-methoxyphenethoxy)-1-(2,4-dimethylphenyl)-N-ethyl-6-methoxy-3,4-dihydroisoquinoline-2(1H)-carboxamide] | 6.90 | 6.22 | 7.00 | 6.70 | 6.70 | significant oral anti-tumor activities |  | tolerate 20 mg/kg BID and safe | 27.09
CCNC(=O)N1CCc2cc(OC)c(OCCc3ccc(OC)c(N)c3)cc2C1c1ccc(N(C)C)cc1C (stereo not shown) [Compound 52] | < 6.00 | < 5.70 | 6.70 | 6.00 | 6.00 |  |  |  | 
COc1ccc(CCOc2cc3c(cc2OC)CCN(C(=O)N[C@H](C)C(F)(F)F)C3c2ccc(C)cc2C)cc1N (stereo partly shown) [Compound 47] | 6.02 | < 5.70 | 6.40 | < 6.00 | 6.22 |  |  |  | 
